US20220034903A1, “Therapies That Target Autoimmunity For Treating Glaucoma And Optic Neuropathy” (The Schepens Eye Research Institute, Inc., priority 2011, published 2022)

What was measured:
Assay type in all cases: in vivo
RGCs [1] = assay: AION (ischemic optic neuropathy), RGC loss in retinal flat-mounts; conditions: WT mice, injected into the vitreous at 3, 7 and 14 days post injury, sacrificed 4 weeks after AION, vs IgG isotype
Procedure: OKT3 antibody was injected into the vitreous of ischemia WT mice at 3, 7, and 14 days post injury. Injection of IgG isotype served as the control. All of the recipient mice were sacrificed at 4 weeks after AION.
(§1) A standard procedure for quantification of RGC axon loss in optic nerve sections was used, e.g., as described in Cho et al., J Cell Sci 118, 863-872. (2005). Axonal density was calculated, and the percentage of axon loss was determined by comparing with the axon density calculated from corresponding regions of the contralateral control eyes. RGC loss was assessed quantitatively in retinal flat-mounts that were incubated with a primary antibody against a RGC specific marker, β-III-tubulin (Fournier, A. E. & McKerracher, L. Biochem Cell Biol 73, 659-664 (1995); Fitzgerald et al., Investigative ophthalmology & visual science (2009); Tuj1; Sigma-Aldrich, St.), followed by a Alexa Fluor 488-conjugated secondary antibody. The degree of RGC loss was assessed as previously described (Chen et al., Investigative ophthalmology & visual science 52, 36-44 (2011)). The total numbers and densities of RGCs were calculated, and the percentage of RGC loss was determined by comparing RGC number with that obtained from the corresponding regions of the contralateral control eyes. […]

retinal activity = assay: Electroretinogram a and b wave after AION; conditions: mice with AION, vs IgG isotype-injected ischemia group, different intensity of light stimulation
RGCs [2] = assay: Optic nerve crush injury, RGC loss at 4 weeks; conditions: wild-type mice, rapamycin i.p. 100 μg/day, 4 weeks post-optic nerve crush (87% loss without treatment)
Procedure: FIG. 9 is a bar chart showing that suppressing autoimmunity using immuno-deficient mice or immune suppressor promotes RGC survival after optic neuropathy. Optic never crush injury was performed in wild-type (wt) mice that received daily injection of PBS (wt) or rapamycin (Rapam) as well as in Rag1^−/− (Rag1) and TCRβ^−/− (TCRβ) mice. Animals were sacrificed 4 weeks post operation, and percentage of RGC loss was assessed. (*P<0.01 as compared to the normal subject group).
as §1, with “(2011)).” for “(2011)). The total numbers and densities of RGCs were calculated, and the percentage of RGC loss was determined by comparing RGC number with that obtained from the corresponding regions of the contralateral control eyes.”

Molecule	effect on RGC loss after AION (RGCs [1])	retinal function (electroretinogram a and b wave) after AION (retinal activity)	RGC loss (RGCs [2])
OKT3 antibody: monoclonal antibody targeted at the CD3 receptor on T cells; clinically approved immunosuppressant	neuroprotective effect	functional rescue of retinal activity	
CO[C@H]1C[C@@H]2CC[C@@H](C)[C@@](O)(O2)C(=O)C(=O)N2CCCC[C@H]2C(=O)O[C@H]([C@H](C)C[C@@H]2CC[C@@H](O)[C@H](OC)C2)CC(=O)[C@H](C)/C=C(\C)[C@@H](O)[C@@H](OC)C(=O)[C@H](C)C[C@H](C)/C=C/C=C/C=C/1C [rapamycin]			65%
